Reference: US20250144067A1, “PERSONALIZED STARVATION THERAPY FOR CANCER” (Faeth Therapeutics, Inc., priority 2021, published 2025)
Where a name gives a salt, the structure may show the parent alone. Read-outs that look alike come from different tables or passages of the source. Peptide text beside a SMILES is read from it.

Key:
[1] = tested on: NCI-H292 lung cancer cells; experiment: FDA drug screening, complete media vs cholesterol-free media without statin (TABLE 1); type: cell-based, human
[2] = tested on: NCI-H292 lung cancer cells; experiment: FDA drug screening, complete media vs cholesterol-free media with simvastatin (TABLE 2); type: cell-based, human
[3] = Complete minus Cholesterol-free, greater than 0 enhanced anti-cancer activity, about 0 neutral, below 0 antagonists
[4] = NCI-H292 cells in cholesterol-free media without statin
[5] = NCI-H292 cells in complete media
[6] = NCI-H292 cells, FDA drug library screen, cholesterol-free media with simvastatin 0.04 μM
[7] = NCI-H292 cells, FDA drug library screen, complete media
[8] = complete media vs cholesterol-free media + simvastatin (0.04 μM), >0 enhanced anti-cancer activity, about 0 neutral, <0 antagonist
[9] = Complete minus Cholesterol-free, >0 enhanced anti-cancer activity, about 0 neutral, <0 antagonist
[10] = NCI-H292 cells, cholesterol-free media without statin
[11] = NCI-H292 cells, drug in cholesterol-free media with simvastatin 0.04 μM
[12] = NCI-H292 cells, drug in complete media
[13] = NCI-H292 cells, cholesterol-free media without statin, FDA drug library screen
[14] = NCI-H292 cells, complete media, FDA drug library screen
[15] = complete vs cholesterol-free media, greater than 0 enhanced anti-cancer activity, about 0 neutral, below 0 antagonists
[16] = NCI-H292 cells, cholesterol-free media with simvastatin 0.04 μM, FDA drug library screen (TABLE 2)
[17] = NCI-H292 cells, complete media, FDA drug library screen (TABLE 2)
[18] = complete media minus cholesterol-free media + simvastatin (0.04 μM), >0 enhanced anti-cancer activity, about 0 neutral, <0 antagonist
[19] = complete media minus cholesterol-free media + simvastatin, >0 enhanced anti-cancer activity, about 0 neutral, <0 antagonist
[20] = NCI-H292 cells, FDA library drug in cholesterol-free media with simvastatin 0.04 μM
[21] = NCI-H292 cells, FDA library drug in complete media
[22] = Complete minus Cholesterol-free, greater than 0 enhanced anti-cancer activity, about 0 neutral, below 0 antagonist
[23] = NCI-H292 cells, FDA drug library screen, cholesterol-free media without statin
[24] = NCI-H292 cells, cholesterol-free media with simvastatin 0.04 μM, cell growth value in FDA drug screen
[25] = NCI-H292 cells, complete media, cell growth value in FDA drug screen
[26] = complete vs cholesterol-free media, >0 enhanced anti-cancer activity, about 0 neutral, <0 antagonist

SMILES	Cholesterol-free media + simvastatin (0.04 μM) [2, 6]	Complete Media [2, 7]	Difference [2, 8]	Difference [1, 9]	Cholesterol-free [1, 10]	Complete ([1]; NCI-H292 cells, complete media)	Cholesterol-free [1, 13]	Complete [1, 14]	further results
C[C@H]1COc2c(N3CCN(C)CC3)c(F)cc3c(=O)c(C(=O)O)cn1c23 [Levofloxacin (hydrate)]	1.078	0.9583	−0.12	–	–	–	–	–	Difference [1, 3]: −0.48; Cholesterol-free [1, 4]: 1.308; Complete [1, 5]: 0.8243
C[C@H]1COc2c(N3CCN(C)CC3)c(F)cc3c(=O)c(C(=O)O)cn1c23 [Levofloxacin]	–	–	−0.19	−0.23	1.162	0.933	–	–	Cholesterol-free media + simvastatin (0.04 μM) [2, 11]: 1.136; Complete Media [2, 12]: 0.944
Nc1nc(=O)c2c([nH]1)NC[C@H](CNc1ccc(C(=O)N[C@@H](CCC(=O)[O-])C(=O)[O-])cc1)N2C=O.[Ca+2] [Levoleucovorin (Calcium)]	1.534	1.758	–	–	–	–	1.535	1.487	Difference ([1]; Complete minus Cholesterol-free, […]): −0.05; Difference ([2]; complete media minus cholesterol-free media + simvastatin, […]): 0.22
CN1c2c(nc(N)[nH]c2=O)NC[C@@H]1CNc1ccc(C(=O)N[C@@H](CCC(=O)O)C(=O)O)cc1 [Levomefolic acid]	–	–	–	–	1.808	1.368	–	–	Difference [1, 15]: −0.44; Cholesterol-free media + simvastatin (0.04 μM) [2, 16]: 0.9044; Complete Media [2, 17]: 0.8568; Difference [2, 18]: −0.05
COc1ccc2c(c1)N(C[C@H](C)CN(C)C)c1ccccc1S2 [Levomepromazine]	0.8554	1.084	–	0.01	–	–	0.8962	0.9041	Difference [2, 19]: 0.23
C#C[C@]1(O)CC[C@H]2[C@@H]3CCC4=CC(=O)CC[C@@H]4[C@H]3CC[C@@]21CC [Levonorgestrel]	–	–	−0.33	−0.21	1.107	0.8992	–	–	Cholesterol-free media + simvastatin (0.04 μM) [2, 20]: 1.877; Complete Media [2, 21]: 1.543
C[C@@H]1CC(=O)NN=C1c1ccc(NN=C(C#N)C#N)cc1 [Levosimendan]	1.165	1.044	−0.12	−0.06	–	–	1.195	1.131	–
CCN1CCC[C@H]1CNC(=O)c1cc(S(N)(=O)=O)ccc1OC [Levosulpiride]	0.9156	1.092	–	–	–	–	–	–	Difference [1, 3]: −0.54; Cholesterol-free [1, 4]: 1.287; Complete [1, 5]: 0.7498; Difference [2, 19]: 0.18
CCN(CC)CC(=O)Nc1c(C)cccc1C [Lidocaine (hydrochloride)]	–	–	–	−0.22	1.21	0.9883	–	–	Cholesterol-free media + simvastatin (0.04 μM) [2, 16]: 0.8862; Complete Media [2, 17]: 0.8646; Difference [2, 18]: −0.02
CCN(CC)CC(=O)Nc1c(C)cccc1C [Lidocaine]	–	–	−0.34	–	–	–	–	–	Difference [1, 3]: −0.78; Cholesterol-free [1, 4]: 1.775; Complete [1, 5]: 0.9935; Cholesterol-free media + simvastatin (0.04 μM) [2, 20]: 1.433; Complete Media [2, 21]: 1.088
CS(=O)(=O)c1cccc(C[C@H](NC(=O)c2c(Cl)cc3c(c2Cl)CCN(C(=O)c2ccc4ccoc4c2)C3)C(=O)O)c1 [Lifitegrast]	1.009	0.8652	−0.14	–	–	–	–	–	Difference [1, 22]: −0.15; Cholesterol-free [1, 23]: 1.11; Complete [1, 7]: 0.9552
Cc1nc(C)c(C)nc1C [Ligustrazine (hydrochloride)]	–	–	−0.21	−0.06	–	–	1.047	0.9829	Cholesterol-free media + simvastatin (0.04 μM) [2, 11]: 1.229; Complete Media [2, 12]: 1.02
CCCC[C@H](C)C[C@H](O)/C=C/[C@H]1[C@H](O)CC(=O)[C@@H]1CCCC/C=C/C(=O)O [Limaprost]	–	–	−0.24	–	1.4	0.949	–	–	Difference [1, 15]: −0.45; Cholesterol-free media + simvastatin (0.04 μM) [2, 11]: 1.214; Complete Media [2, 12]: 0.9724
C[C@@H]1NC(=O)[C@@H]2CCCN2C(=O)[C@H](CC(N)=O)NC(=O)[C@@H]2CSSC[C@H](N)C(=O)N[C@H]3CSSC[C@H](NC1=O)C(=O)N[C@@H]([C@@H](C)O)C(=O)NCC(=O)N[C@H](C(=O)N[C@@H](Cc1ccc(O)cc1)C(=O)O)CSSC[C@H](NC(=O)[C@H](Cc1ccc(O)cc1)NC(=O)[C@H](CCC(=O)O)NC3=O)C(=O)N2 [Linaclotide] (HELM PEPTIDE1{C.C.E.Y.C.C.N.P.A.C.T.G.C.Y}$PEPTIDE1,PEPTIDE1,1:R3-6:R3|PEPTIDE1,PEPTIDE1,2:R3-10:R3|PEPTIDE1,PEPTIDE1,5:R3-13:R3$$$V2.0)	0.9562	0.8554	–	–	–	–	1.326	1.765	Difference ([1]; complete vs cholesterol-free media, […]): 0.44; Difference ([2]; complete media vs cholesterol-free media + simvastatin (0.04 μM), […]): −0.10
CC#CCn1c(N2CCC[C@@H](N)C2)nc2c1c(=O)n(Cc1nc(C)c3ccccc3n1)c(=O)n2C [Linagliptin]	–	–	–	−0.23	1.072	0.8404	–	–	Cholesterol-free media + simvastatin (0.04 μM) [2, 16]: 1.095; Complete Media [2, 17]: 1.067; Difference [2, 18]: −0.03
CCC[C@@H]1C[C@@H](C(=O)N[C@@H]([C@H]2O[C@H](SC)[C@H](O)[C@@H](O)[C@H]2O)[C@@H](C)O)N(C)C1 [Lincomycin (hydrochloride monohydrate)]	–	–	–	–	1.114	0.7781	–	–	Difference [1, 15]: −0.34; Cholesterol-free media + simvastatin (0.04 μM) [2, 24]: 0.819; Complete Media [2, 25]: 0.8378; Difference [2, 19]: 0.02
CC(=O)NC[C@H]1CN(c2ccc(N3CCOCC3)c(F)c2)C(=O)O1 [Linezolid]	–	–	−0.19	0.04	–	–	0.9483	0.9881	Cholesterol-free media + simvastatin (0.04 μM) [2, 11]: 1.38; Complete Media [2, 12]: 1.187
CCCCC/C=C\C/C=C\CCCCCCCC(=O)O [Linoleic acid]	1.399	1.847	–	–	–	–	1.134	1.557	Difference [1, 26]: 0.42; Difference [2, 19]: 0.45
N[C@@H](Cc1cc(I)c(Oc2ccc(O)c(I)c2)c(I)c1)C(=O)O [Liothyronine (sodium)]	–	–	−0.19	–	1.224	0.9078	–	–	Difference [1, 15]: −0.32; Cholesterol-free media + simvastatin (0.04 μM) [2, 11]: 1.302; Complete Media [2, 12]: 1.113
N[C@@H](Cc1cc(I)c(Oc2ccc(O)c(I)c2)c(I)c1)C(=O)O [Liothyronine]	1.186	1.048	−0.14	−0.26	1.173	0.9078	–	–	–
O=C(O)CCCCC1CCSS1 (stereo not drawn) [Lipoic acid]	0.7443	1.012	–	–	–	–	–	–	Difference [1, 22]: −0.11; Cholesterol-free [1, 23]: 0.8613; Complete [1, 7]: 0.7528; Difference [2, 19]: 0.27
COc1cccc(N(C)C(=S)Oc2ccc3c(c2)CCCC3)n1 [Liranaftate]	–	–	–	–	–	–	–	–	Cholesterol-free [1]: 1.279; Complete [1]: 0.8388; Difference [1]: −0.44; Cholesterol-free media + simvastatin (0.04 μM) [2]: 0.9604; Complete Media [2]: 0.9217; Difference [2]: −0.04
NCCCC[C@H](N[C@@H](CCc1ccccc1)C(=O)O)C(=O)N1CCC[C@H]1C(=O)O [Lisinopril (dihydrate)]	–	–	–	–	–	–	–	–	Difference [1, 22]: −0.08; Cholesterol-free [1, 23]: 1.734; Complete [1, 7]: 1.657; Cholesterol-free media + simvastatin (0.04 μM) [2, 16]: 0.94; Complete Media [2, 17]: 0.9409; Difference [2, 18]: 0.00
CN1[C@@H](CC(=O)c2ccccc2)CCC[C@H]1C[C@H](O)c1ccccc1 [Lobeline (hydrochloride)]	–	–	−0.29	–	–	–	0.6538	1.202	Difference [1, 26]: 0.55; Cholesterol-free media + simvastatin (0.04 μM) [2, 20]: 1.408; Complete Media [2, 21]: 1.116
CCCc1nn(C)c2c(=O)[nH]c(-c3cc(S(=O)(=O)N4CCN(CCO)CC4)ccc3OCC)nc12 [Lodenafil]	–	–	–	−0.27	0.8421	0.5699	–	–	Cholesterol-free media + simvastatin (0.04 μM) [2, 24]: 0.819; Complete Media [2, 25]: 0.8488; Difference [2, 19]: 0.03
N#Cc1cc(NC(=O)C(=O)O)c(Cl)c(NC(=O)C(=O)O)c1.NC(CO)(CO)CO.NC(CO)(CO)CO [Lodoxamide (tromethamine)]	0.9835	1.282	–	–	–	–	–	–	Difference [1, 22]: −0.13; Cholesterol-free [1, 23]: 0.8848; Complete [1, 7]: 0.7586; Difference [2, 19]: 0.30
